{"source": "the Kinase Knowledgebase extract (Sharma et al. 2016)", "note": "pIC50: −log10 of the molar value.", "data": [{"biological_target": "MAPK14 (UniProt Q16539)", "sequence (Q16539 whole entry, looked up)": "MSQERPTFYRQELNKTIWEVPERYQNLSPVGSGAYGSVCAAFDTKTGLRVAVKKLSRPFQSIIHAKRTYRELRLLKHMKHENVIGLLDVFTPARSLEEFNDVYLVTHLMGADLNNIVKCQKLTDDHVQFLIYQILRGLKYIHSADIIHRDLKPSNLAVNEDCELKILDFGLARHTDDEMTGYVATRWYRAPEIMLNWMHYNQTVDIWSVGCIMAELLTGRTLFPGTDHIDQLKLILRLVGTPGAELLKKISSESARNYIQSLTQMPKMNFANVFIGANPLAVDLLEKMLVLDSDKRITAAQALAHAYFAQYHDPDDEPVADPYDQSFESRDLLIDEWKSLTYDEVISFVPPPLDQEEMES", "assay": "SAPK2-alpha Kinase Inhibition", "values": [{"smiles": "Cc1nc(C)c(-c2ccnc(Nc3ccc(Cl)cc3)n2)s1", "pIC50": "< 4.70"}, {"smiles": "Cc1nc(C)c(-c2ccnc(Nc3cccc([N+](=O)[O-])c3)n2)s1", "pIC50": "< 4.70"}, {"smiles": "Cc1nc(C)c(-c2ccnc(Nc3ccc(F)cc3)n2)s1", "pIC50": "< 4.70"}]}, {"biological_target": "CDK2 (UniProt P24941)", "assay": "Enzyme Assay", "values": [{"smiles": "CNc1nc(C)c(-c2ccnc(Nc3ccc(F)c(F)c3)n2)s1", "pIC50": 5.92}, {"smiles": "COC(=O)c1cc(Nc2nccc(-c3sc(C)nc3C)n2)ccc1Cl", "pIC50": 5.96}, {"smiles": "CNc1nc(C)c(-c2ccnc(Nc3cccc(Cl)c3)n2)s1", "pIC50": 5.52}, {"smiles": "COCCOC(=O)c1cc(Nc2nccc(-c3sc(C)nc3C)n2)ccc1F", "pIC50": 6.22}, {"smiles": "Cc1nc(C)c(-c2ccnc(Nc3cccc(NC(=N)N)c3)n2)s1", "pIC50": 5.85}, {"smiles": "CNc1nc(C)c(-c2ccnc(Nc3ccc(OC)cc3)n2)s1", "pIC50": 6.10}, {"smiles": "CNc1nc(C)c(-c2ccnc(Nc3cccc(F)c3)n2)s1", "pIC50": 6.22}, {"smiles": "CNc1nc(C)c(-c2ccnc(Nc3cc(F)cc(F)c3)n2)s1", "pIC50": 5.70}, {"smiles": "Cc1nc(C)c(-c2ccnc(Nc3ccc(Cc4ccncc4)cc3)n2)s1", "pIC50": 6.15}, {"smiles": "COc1ccc(Nc2nccc(-c3sc(C)nc3C)n2)c(O)c1", "pIC50": 6.22}, {"smiles": "Cc1nc(C)c(-c2ccnc(Nc3ccc([N+](C)(C)C)cc3)n2)s1", "pIC50": 5.82}, {"smiles": "CNc1nc(C)c(-c2ccnc(Nc3ccc(Cl)c(C(F)(F)F)c3)n2)s1", "pIC50": 5.00}]}, {"biological_target": "CDK2 (UniProt P24941)", "assay": "not given", "values": [{"smiles": "Cc1nc(C)c(-c2ccnc(Nc3ccc(Cl)cc3)n2)s1", "pIC50": 5.05}]}]}
